Results from BindingDB's records for doi:10.1021/jm800792b (Industrial Research, 2008).

Legend:
[1] = molecular target: T1, Purine nucleoside phosphorylase (Homo sapiens, UniProt P00491); test: Inhibition of human purine nucleoside phosphorylase by xanthine-oxidase coupled assay
T1 sequence (P00491 whole entry): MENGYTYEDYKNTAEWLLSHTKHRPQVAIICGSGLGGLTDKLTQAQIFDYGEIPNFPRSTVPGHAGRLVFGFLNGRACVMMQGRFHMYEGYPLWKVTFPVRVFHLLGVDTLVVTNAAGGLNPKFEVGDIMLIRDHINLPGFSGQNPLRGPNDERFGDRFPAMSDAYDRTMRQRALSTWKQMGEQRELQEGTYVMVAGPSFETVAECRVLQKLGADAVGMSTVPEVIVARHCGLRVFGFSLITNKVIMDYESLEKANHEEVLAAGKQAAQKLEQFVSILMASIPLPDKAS

[2] = molecular target: T1, Purine nucleoside phosphorylase; test: Inhibition of human purine nucleoside phosphorylase assessed as slow onset inhibition constant by xanthine-oxidase coupled assay

Q: For `O=c1[nH]cnc2c(CN3C[C@H](O)[C@@](F)(CO)C3)c[nH]c12` [Immucillins, 1], which Ki [1] is on record?
A: 0.066 nM

Q: And the Ki [2]?
A: 0.5 nM
